pIC50: −log10 of the molar value.
Experiments:
[1] = target: mTORC2 (Homo sapiens, UniProt P42345+Q6R327+Q9BPZ7+Q9BVC4); assay: Inhibition of mTORC2 in human PC-3 cells assessed as measuring phosphorylated Akt level incubated for 24 hrs by AlphaLISA assay; assay type: cell-based
[2] = target: T1, mTORC1 (Homo sapiens, UniProt P42345+Q8N122+Q9BVC4); assay: Inhibition of mTORC1 in human PC-3 cells assessed as measuring phosphorylated S6K level incubated for 24 hrs by AlphaLISA assay; assay type: cell-based
[3] = tested on: A549; assay: Antitumor activity against human A549 cells assessed as cell growth inhibition incubated for 72 hrs by Cell Titer-Glo assay; assay type: functional, cell-based; conditions: A549, 72 h
[4] = Solubility of the compound in water; assay type: physicochemical
[5] = target: Phosphatidylinositol 4,5-bisphosphate 3-kinase catalytic subunit alpha isoform (Homo sapiens, UniProt P42336); assay: Inhibition of human PI3Kalpha preincubated for 15 mins followed by ATP addition measured after 1 hr by TR-FRET assay
Sequence of Phosphatidylinositol 4,5-bisphosphate 3-kinase catalytic subunit alpha isoform (P42336 whole entry, canonical isoform): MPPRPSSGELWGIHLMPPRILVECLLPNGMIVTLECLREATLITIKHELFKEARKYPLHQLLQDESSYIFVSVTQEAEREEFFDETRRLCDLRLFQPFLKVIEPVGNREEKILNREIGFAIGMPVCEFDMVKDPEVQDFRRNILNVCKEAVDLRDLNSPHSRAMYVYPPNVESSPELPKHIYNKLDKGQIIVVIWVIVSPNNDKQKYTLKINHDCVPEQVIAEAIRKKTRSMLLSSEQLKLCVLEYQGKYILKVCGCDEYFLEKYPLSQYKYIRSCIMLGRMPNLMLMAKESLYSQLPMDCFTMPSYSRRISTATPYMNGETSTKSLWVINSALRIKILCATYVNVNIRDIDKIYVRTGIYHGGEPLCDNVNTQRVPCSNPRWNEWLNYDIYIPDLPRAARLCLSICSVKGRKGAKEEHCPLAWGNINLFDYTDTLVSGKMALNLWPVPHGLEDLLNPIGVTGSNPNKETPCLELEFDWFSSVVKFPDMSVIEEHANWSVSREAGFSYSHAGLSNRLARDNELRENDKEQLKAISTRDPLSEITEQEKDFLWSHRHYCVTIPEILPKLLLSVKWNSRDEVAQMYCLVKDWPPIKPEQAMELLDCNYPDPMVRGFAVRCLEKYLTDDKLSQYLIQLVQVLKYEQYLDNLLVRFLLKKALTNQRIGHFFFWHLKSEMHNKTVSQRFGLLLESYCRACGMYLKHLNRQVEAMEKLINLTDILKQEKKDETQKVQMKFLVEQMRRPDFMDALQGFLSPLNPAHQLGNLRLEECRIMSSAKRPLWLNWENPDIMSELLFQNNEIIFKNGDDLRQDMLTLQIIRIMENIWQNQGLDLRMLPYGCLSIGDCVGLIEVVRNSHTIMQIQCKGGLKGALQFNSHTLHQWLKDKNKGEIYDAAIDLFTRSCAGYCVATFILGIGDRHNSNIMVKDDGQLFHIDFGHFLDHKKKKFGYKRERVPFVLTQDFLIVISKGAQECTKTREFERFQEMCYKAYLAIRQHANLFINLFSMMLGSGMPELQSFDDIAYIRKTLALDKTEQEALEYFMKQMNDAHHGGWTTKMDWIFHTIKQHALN

[6] = target: T1, mTORC1; assay: Inhibition of mTORC1 (unknown origin); assay type: protein-complex assay
[7] = target: Phosphatidylinositol 4,5-bisphosphate 3-kinase catalytic subunit gamma isoform (Homo sapiens, UniProt P48736); assay: Inhibition of human PI3Kgamma preincubated for 15 mins followed by ATP addition measured after 1 hr by TR-FRET assay
Sequence of Phosphatidylinositol 4,5-bisphosphate 3-kinase catalytic subunit gamma isoform (P48736 whole entry, canonical isoform): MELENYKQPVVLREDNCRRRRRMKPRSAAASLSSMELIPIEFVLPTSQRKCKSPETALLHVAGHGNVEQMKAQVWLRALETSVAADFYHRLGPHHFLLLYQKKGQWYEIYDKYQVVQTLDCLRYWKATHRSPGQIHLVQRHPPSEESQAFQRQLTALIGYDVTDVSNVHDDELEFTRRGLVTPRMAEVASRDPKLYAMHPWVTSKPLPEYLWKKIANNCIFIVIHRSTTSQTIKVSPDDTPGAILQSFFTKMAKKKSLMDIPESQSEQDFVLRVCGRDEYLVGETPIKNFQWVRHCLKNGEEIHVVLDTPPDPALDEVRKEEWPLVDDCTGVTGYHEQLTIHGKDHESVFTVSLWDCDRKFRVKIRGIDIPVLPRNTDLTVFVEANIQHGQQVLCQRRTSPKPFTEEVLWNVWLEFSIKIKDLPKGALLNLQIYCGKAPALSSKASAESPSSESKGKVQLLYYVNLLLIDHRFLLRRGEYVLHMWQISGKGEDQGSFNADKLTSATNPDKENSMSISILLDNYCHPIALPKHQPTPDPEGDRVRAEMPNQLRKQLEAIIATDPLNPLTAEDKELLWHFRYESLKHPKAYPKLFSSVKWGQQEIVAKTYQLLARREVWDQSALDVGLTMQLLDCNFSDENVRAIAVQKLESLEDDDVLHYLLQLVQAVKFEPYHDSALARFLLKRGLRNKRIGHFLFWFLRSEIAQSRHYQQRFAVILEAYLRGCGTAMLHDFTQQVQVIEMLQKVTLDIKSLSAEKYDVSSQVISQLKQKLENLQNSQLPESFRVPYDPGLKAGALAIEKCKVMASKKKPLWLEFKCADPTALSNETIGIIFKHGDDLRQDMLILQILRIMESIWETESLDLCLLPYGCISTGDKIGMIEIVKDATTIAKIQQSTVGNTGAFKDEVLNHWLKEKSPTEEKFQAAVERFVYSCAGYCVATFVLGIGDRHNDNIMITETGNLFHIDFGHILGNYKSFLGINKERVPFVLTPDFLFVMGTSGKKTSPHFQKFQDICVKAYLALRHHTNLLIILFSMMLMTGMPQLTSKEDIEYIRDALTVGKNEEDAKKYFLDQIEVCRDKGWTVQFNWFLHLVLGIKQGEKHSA

[8] = target: T2, Phosphatidylinositol 4,5-bisphosphate 3-kinase catalytic subunit delta isoform (Homo sapiens, UniProt O00329); assay: Inhibition of human PI3Kdelta preincubated for 15 mins followed by ATP addition measured after 1 hr by TR-FRET assay
T2 sequence (O00329 whole entry): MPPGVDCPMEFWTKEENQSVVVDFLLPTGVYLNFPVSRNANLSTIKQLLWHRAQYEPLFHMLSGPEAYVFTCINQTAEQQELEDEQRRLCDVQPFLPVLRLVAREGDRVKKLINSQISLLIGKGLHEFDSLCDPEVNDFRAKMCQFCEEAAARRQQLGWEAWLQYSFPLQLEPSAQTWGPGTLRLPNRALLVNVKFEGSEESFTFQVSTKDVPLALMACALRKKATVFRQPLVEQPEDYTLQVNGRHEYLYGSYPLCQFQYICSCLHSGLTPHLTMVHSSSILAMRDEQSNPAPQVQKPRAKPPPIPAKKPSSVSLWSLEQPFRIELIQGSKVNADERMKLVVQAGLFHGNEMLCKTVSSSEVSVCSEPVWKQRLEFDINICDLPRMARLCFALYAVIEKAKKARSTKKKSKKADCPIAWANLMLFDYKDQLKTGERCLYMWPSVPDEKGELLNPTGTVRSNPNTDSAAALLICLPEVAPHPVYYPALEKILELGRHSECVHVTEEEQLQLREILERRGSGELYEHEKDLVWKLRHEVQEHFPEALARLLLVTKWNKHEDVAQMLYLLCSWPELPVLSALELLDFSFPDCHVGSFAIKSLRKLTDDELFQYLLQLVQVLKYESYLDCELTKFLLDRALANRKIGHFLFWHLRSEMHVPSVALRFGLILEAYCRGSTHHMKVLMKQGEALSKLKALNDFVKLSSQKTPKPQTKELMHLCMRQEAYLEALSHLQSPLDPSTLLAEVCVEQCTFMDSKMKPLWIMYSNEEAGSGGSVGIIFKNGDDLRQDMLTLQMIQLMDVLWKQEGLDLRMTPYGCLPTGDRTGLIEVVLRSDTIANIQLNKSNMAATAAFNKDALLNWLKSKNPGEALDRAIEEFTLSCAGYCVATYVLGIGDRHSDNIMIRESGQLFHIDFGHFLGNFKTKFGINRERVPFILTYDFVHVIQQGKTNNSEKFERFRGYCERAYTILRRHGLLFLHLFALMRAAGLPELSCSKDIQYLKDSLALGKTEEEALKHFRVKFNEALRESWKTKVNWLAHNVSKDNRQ

[9] = target: T3, Serine/threonine-protein kinase mTOR (Homo sapiens, UniProt P42345); assay: Inhibition of human mTOR assessed as measuring phosphorylated p70S6K level by TR-FRET assay
[10] = tested on: SF-268; assay: Antitumor activity against human SF-268 cells assessed as cell growth inhibition; assay type: functional, cell-based
[11] = tested on: PC-3; assay: Antitumor activity against human PC-3 cells assessed as cell growth inhibition; assay type: functional, cell-based
[12] = Antitumor activity against human U-87 MG cells assessed as cell growth inhibition; assay type: functional, cell-based, U-87MG ATCC
[13] = tested on: DU-145; assay: Antitumor activity against human DU-145 cells assessed as cell growth inhibition; assay type: functional, cell-based
[14] = target: T3, Serine/threonine-protein kinase mTOR; assay: Inhibition of mTOR (unknown origin) assessed as residual activity at 30 nM relative to control; values are per cent of control

Sequence of mTORC2 (Q6R327 whole entry, other chains not shown): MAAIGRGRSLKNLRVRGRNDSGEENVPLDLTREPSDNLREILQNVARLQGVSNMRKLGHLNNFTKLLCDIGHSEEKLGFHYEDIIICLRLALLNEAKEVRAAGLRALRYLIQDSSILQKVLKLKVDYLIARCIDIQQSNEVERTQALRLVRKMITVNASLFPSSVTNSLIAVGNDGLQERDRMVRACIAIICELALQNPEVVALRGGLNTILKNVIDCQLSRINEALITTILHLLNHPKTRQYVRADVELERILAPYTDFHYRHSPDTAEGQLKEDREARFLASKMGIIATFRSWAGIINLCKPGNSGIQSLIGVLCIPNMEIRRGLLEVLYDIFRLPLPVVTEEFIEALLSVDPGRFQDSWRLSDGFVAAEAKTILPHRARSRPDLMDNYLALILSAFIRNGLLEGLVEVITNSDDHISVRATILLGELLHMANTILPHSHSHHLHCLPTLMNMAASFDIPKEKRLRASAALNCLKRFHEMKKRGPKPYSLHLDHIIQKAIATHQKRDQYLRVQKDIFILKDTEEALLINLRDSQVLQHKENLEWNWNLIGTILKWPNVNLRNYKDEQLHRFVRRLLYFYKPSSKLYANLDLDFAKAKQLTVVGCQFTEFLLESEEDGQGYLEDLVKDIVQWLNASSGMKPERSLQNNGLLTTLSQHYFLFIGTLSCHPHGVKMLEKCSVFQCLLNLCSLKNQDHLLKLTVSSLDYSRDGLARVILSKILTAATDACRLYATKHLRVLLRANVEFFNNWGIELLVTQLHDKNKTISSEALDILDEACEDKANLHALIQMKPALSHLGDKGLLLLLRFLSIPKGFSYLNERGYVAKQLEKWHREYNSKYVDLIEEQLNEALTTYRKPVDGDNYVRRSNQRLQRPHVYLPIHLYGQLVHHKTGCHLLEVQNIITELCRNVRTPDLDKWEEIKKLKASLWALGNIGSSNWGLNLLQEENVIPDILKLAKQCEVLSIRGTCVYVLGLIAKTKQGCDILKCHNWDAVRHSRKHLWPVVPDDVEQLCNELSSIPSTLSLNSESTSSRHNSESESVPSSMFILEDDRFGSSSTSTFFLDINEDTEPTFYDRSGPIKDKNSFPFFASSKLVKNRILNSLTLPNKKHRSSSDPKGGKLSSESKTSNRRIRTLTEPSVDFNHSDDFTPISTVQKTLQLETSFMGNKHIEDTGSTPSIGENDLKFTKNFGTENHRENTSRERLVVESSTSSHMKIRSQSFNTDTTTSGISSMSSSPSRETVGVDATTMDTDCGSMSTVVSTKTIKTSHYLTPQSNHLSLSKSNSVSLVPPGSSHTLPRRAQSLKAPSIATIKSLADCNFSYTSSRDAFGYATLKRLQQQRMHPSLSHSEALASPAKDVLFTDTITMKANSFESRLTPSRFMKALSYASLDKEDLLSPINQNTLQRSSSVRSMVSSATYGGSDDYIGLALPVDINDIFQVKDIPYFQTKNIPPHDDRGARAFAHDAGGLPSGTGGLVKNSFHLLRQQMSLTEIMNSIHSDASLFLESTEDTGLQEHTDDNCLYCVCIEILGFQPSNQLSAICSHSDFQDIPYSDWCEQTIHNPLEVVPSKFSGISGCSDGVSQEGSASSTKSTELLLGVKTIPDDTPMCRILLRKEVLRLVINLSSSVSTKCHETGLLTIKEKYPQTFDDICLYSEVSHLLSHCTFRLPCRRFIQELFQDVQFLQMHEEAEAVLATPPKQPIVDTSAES
Sequence of mTORC2 (Q9BPZ7 2-522 limits assumed, other chains not shown): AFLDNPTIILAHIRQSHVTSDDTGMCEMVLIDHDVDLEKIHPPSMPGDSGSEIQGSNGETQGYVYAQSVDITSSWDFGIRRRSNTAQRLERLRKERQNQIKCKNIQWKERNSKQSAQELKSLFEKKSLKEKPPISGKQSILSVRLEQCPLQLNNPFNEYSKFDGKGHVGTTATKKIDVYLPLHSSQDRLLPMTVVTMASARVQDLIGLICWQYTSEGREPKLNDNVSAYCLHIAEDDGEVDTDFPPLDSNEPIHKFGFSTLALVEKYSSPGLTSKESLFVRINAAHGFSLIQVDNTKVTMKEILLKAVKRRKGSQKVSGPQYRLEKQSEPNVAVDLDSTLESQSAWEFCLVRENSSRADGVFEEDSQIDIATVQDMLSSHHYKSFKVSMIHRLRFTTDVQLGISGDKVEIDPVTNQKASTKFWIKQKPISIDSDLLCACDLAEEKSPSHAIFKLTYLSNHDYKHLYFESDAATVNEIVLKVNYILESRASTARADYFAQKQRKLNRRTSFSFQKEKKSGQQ
Sequence of mTORC2 (Q9BVC4 whole entry, other chains not shown): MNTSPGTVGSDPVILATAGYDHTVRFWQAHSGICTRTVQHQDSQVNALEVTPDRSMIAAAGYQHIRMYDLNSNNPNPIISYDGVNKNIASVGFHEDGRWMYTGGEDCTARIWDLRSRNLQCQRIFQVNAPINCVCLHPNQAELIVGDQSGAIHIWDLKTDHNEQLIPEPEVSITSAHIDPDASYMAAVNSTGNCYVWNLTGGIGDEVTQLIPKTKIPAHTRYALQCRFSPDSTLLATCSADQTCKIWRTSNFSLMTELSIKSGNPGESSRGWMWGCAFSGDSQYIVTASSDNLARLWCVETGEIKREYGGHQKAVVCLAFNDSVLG

In the case of CO[C@@H]1C[C@H](C[C@@H](C)[C@@H]2CC(=O)[C@H](C)/C=C(\C)[C@@H](O)[C@@H](OC)C(=O)[C@H](C)C[C@H](C)/C=C/C=C/C=C(\C)C(OCCO)C[C@@H]3CC[C@@H](C)[C@@](O)(O3)C(=O)C(=O)N3CCCC[C@H]3C(=O)O2)CC[C@H]1OCCCN1CCOC[C@H]1C (stereo partly drawn), the pIC50 [1] was < 5.00 and the pIC50 [2] was > 9.50.

For CO[C@@H]1C[C@H](C[C@@H](C)[C@@H]2CC(=O)[C@H](C)/C=C(\C)[C@@H](O)[C@@H](OC)C(=O)[C@H](C)C[C@H](C)/C=C/C=C/C=C(\C)C(OCCO)C[C@@H]3CC[C@@H](C)[C@@](O)(O3)C(=O)C(=O)N3CCCC[C@H]3C(=O)O2)CC[C@H]1OCCCN1CCOC(C)(C)C1 (stereo partly drawn), the pIC50 [1] was < 5.00 and the pIC50 [2] was > 9.50.

For CO[C@@H]1C[C@@H]2CC[C@@H](C)[C@@](O)(O2)C(=O)C(=O)N2CCCC[C@H]2C(=O)O[C@H]([C@H](C)C[C@@H]2CC[C@@H](O)[C@H](OC)C2)CC(=O)[C@H](C)/C=C(\C)[C@@H](OC(=O)C[n+]2csc(C)c2C)[C@@H](OC)C(=O)[C@H](C)C[C@H](C)/C=C/C=C/C=C/1C.[Br-], the pIC50 [3] was 5.52 and the solubility [4] was 10000 µg/mL.

In the case of COc1cccc2cc(-c3nn(C4CCOCC4)c4ncnc(N)c34)[nH]c12, the pIC50 [5] was 7.00, the pIC50 [6] was > 8.30 and the pIC50 [7] was 8.00. It also gave a pIC50 [8] of 8.00.

For CC(=O)N1CCC(n2nc(-c3cc4cc(O)cc(Cl)c4[nH]3)c3c(N)ncnc32)CC1, the pIC50 [5] was 7.00, the pIC50 [6] was > 8.30 and the pIC50 [7] was 7.30. For the same molecule, the pIC50 [8] was 8.00.

For CO[C@@H]1C[C@@H]2CC[C@@H](C)[C@@](O)(O2)C(=O)C(=O)N2CCCC[C@H]2C(=O)O[C@H]([C@H](C)C[C@@H]2CC[C@@H](OC(=O)C[n+]3csc(C)c3C)[C@H](OC)C2)CC(=O)[C@H](C)/C=C(\C)[C@@H](O)[C@@H](OC)C(=O)[C@H](C)C[C@H](C)/C=C/C=C/C=C/1C.[Br-], the pIC50 [3] was 5.13 and the solubility [4] was 4200 µg/mL.

For COc1ccc(-c2ccc3c(N4CCOC[C@@H]4C)cc(N4CCOC[C@@H]4C)nc3n2)cc1, the pIC50 [9] was > 7.00.

For CO[C@H]1C[C@@H]2CC[C@@H](C)[C@@](O)(O2)C(=O)C(=O)N2CCCC[C@H]2C(=O)O[C@H]([C@H](C)C[C@@H]2CC[C@@H](O)[C@H](OC)C2)CC(=O)[C@H](C)/C=C(\C)[C@@H](O)[C@@H](OC)C(=O)[C@H](C)C[C@H](C)/C=C/C=C/C=C/1C [SIROLIMUS], the pIC50 [3] was 4.31, the pIC50 [10] was 5.57 and the pIC50 [11] was 5.89. The pIC50 [12] was 5.00 and the pIC50 [13] was 5.40.

In the case of Nc1ncnc2c1c(-c1cc3cc(O)cc(Cl)c3[nH]1)nn2C1CCOCC1, the pIC50 [5] was 7.00, the pIC50 [6] was > 8.30 and the pIC50 [7] was 7.60. The pIC50 [8] was 8.00.

With CO[C@@H]1C[C@H](C[C@@H](C)[C@@H]2CC(=O)[C@H](C)/C=C(\C)[C@@H](O)[C@@H](OC)C(=O)[C@H](C)C[C@H](C)/C=C/C=C/C=C(\C)C(OCCO)C[C@@H]3CC[C@@H](C)[C@@](O)(O3)C(=O)C(=O)N3CCCC[C@H]3C(=O)O2)CC[C@H]1OCCCN1C[C@@H](C)O[C@@H](C)C1 (stereo partly drawn) the pIC50 [1] was < 5.00 and the pIC50 [2] was > 9.50.

With CC(C)(C#N)c1ccc(-n2c3c4cc(-c5ccc(NC(=O)CNC6CCCCC6)nc5)ccc4ncc3n3cnnc23)cc1 the residual activity [14] was < 5%.

For CO[C@@H]1C[C@H](C[C@@H](C)[C@@H]2CC(=O)[C@H](C)/C=C(\C)[C@@H](O)[C@@H](OC)C(=O)[C@H](C)C[C@H](C)/C=C/C=C/C=C(\C)C(OCCO)C[C@@H]3CC[C@@H](C)[C@@](O)(O3)C(=O)C(=O)N3CCCC[C@H]3C(=O)O2)CC[C@H]1OC(=O)NCCc1ccccc1 (stereo partly drawn), the pIC50 [1] was < 5.00 and the pIC50 [2] was > 9.50.

For C[C@H]1COCCN1c1cc(N2CCOC[C@@H]2C)c2ccc(-c3ccc(CNCCO)cc3)nc2n1, the pIC50 [9] was > 7.00.

In the case of CN(C)CC(=O)Nc1ccc(-c2ccc3ncc4c(c3c2)n(-c2ccc(C(C)(C)C#N)cc2)c2nncn42)cn1, the residual activity [14] was < 5%.

Source: ChEMBL document CHEMBL5214923, “Contemporary mTOR inhibitor scaffolds to diseases breakdown: A patent review (2015-2021)” (Eur J Med Chem, 2022)
